What all share (type): cell-based, human
The test system of one test is HL-60(TB). Put plainly: NCI in vitro anti-tumor screening, 1 μM, SRB. To be noted: c = 1 μM; HL-60(TB) (Leukemia); two days.
The next test deals with MOLT-4. As to the kind of experiment: NCI in vitro anti-tumor screening, 1 μM, SRB. Conditions: c = 1 μM; MOLT-4 (Leukemia); two days.
The next test has as its system RPMI-8226. As to the kind of experiment: NCI in vitro anti-tumor screening, 1 μM, SRB. Conditions: c = 1 μM; RPMI-8226 (Leukemia); two days.
In the next test the test system is K-562. Put plainly: NCI in vitro anti-tumor screening, 1 μM, SRB. To be noted: c = 1 μM; K-562 (Leukemia); two days.
The subject of a further test is LOX IMVI. As to the kind of experiment: NCI in vitro anti-tumor screening, 1 μM, SRB. Conditions: c = 1 μM; LOX IMVI (Melanoma); two days.
For a further test, the system named is MALME-3M. Put plainly: NCI in vitro anti-tumor screening, 1 μM, SRB. To be noted: c = 1 μM; MALME-3M (Melanoma); two days.
The test system of a further test is M14. Put plainly: NCI in vitro anti-tumor screening, 1 μM, SRB. To be noted: c = 1 μM; M14 (Melanoma); two days.
The next test has as its system MDA-MB-435. As to the kind of experiment: NCI in vitro anti-tumor screening, 1 μM, SRB. To be noted: c = 1 μM; MDA-MB-435 (Melanoma); two days.
The subject of another test is SK-MEL-2. As to the kind of experiment: NCI in vitro anti-tumor screening, 1 μM, SRB. To be noted: c = 1 μM; SK-MEL-2 (Melanoma); two days.
In another test the test system is SK-MEL-28. Put plainly: NCI in vitro anti-tumor screening, 1 μM, SRB. To be noted: c = 1 μM; SK-MEL-28 (Melanoma); two days.
The next test deals with SK-MEL-5. As to the kind of experiment: NCI in vitro anti-tumor screening, 1 μM, SRB. Conditions: c = 1 μM; SK-MEL-5 (Melanoma); two days.
Another test has as its system UACC-257. As to the kind of experiment: NCI in vitro anti-tumor screening, 1 μM, SRB. Conditions: c = 1 μM; UACC-257 (Melanoma); two days.
The subject of a further test is UACC-62. As to the kind of experiment: NCI in vitro anti-tumor screening, 1 μM, SRB. Conditions: c = 1 μM; UACC-62 (Melanoma); two days.
The subject of a further test is MCF7. As to the kind of experiment: NCI in vitro anti-tumor screening, 1 μM, SRB. Conditions: c = 1 μM; MCF7 (Breast cancer); two days.
Another test relates to MDA-MB-231/ATCC. Put plainly: NCI in vitro anti-tumor screening, 1 μM, SRB. Conditions: c = 1 μM; MDA-MB-231/ATCC (Breast cancer); two days.
The test system of a further test is BT-549. As to the kind of experiment: NCI in vitro anti-tumor screening, 1 μM, SRB. To be noted: c = 1 μM; BT-549 (Breast cancer); two days.
A further test relates to T-47D. Put plainly: NCI in vitro anti-tumor screening, 1 μM, SRB. To be noted: c = 1 μM; T-47D (Breast cancer); two days.
A further test concerns MDA-MB-468. As to the kind of experiment: NCI in vitro anti-tumor screening, 1 μM, SRB. Conditions: c = 1 μM; MDA-MB-468 (Breast cancer); two days.
A further test has as its system Leukemia cell lines. As to the kind of experiment: NCI in vitro anti-tumor screening, 1 μM, mean of leukemia lines. To be noted: c = 1 μM.
Another test deals with Melanoma cell lines. Put plainly: NCI in vitro anti-tumor screening, 1 μM, mean of melanoma lines. Conditions: c = 1 μM.
The subject of the next test is Breast cancer cell lines. As to the kind of experiment: NCI in vitro anti-tumor screening, 1 μM, mean of breast cancer lines. To be noted: c = 1 μM.
The subject of the next test is 60 tumor cell lines. Put plainly: NCI in vitro anti-tumor screening, 1 μM, all 60 cell lines. To be noted: c = 1 μM; all 60 cell lines.

`Nc1nc2c(c3ccncc13)C(c1ccc(Br)cc1)Cc1ccncc1-2` (stereo not shown): the Percentage cell growth worked out at 70.3% in the test with HL-60(TB); 75.3% in the test on MOLT-4; 64.7% in the test with RPMI-8226; 84.9% with K-562; 95.7% in the test with LOX IMVI; 98.2% with MALME-3M. The Percentage cell growth in the test with M14 worked out at 93.4%; with MDA-MB-435, 107%; in the test on SK-MEL-2 it was 94.1%; with SK-MEL-28, 112.5%; in the test on SK-MEL-5 it was 86.2%; in the test with UACC-257 it was 107.8%. Further, the Percentage cell growth with UACC-62 is on record as 81.7%; in the test on MCF7, 83.4%; in the test on MDA-MB-231/ATCC, 80.6%; in the test with BT-549, 67.8%; in the test with T-47D, 84.6%; in the test with MDA-MB-468 it was 87.6%. Also, the “Percentage cell growth, Arithmetic mean” value amounted to 73.8% with Leukemia cell lines, 97.4% in the test on Melanoma cell lines and 80.8% in the test with Breast cancer cell lines. In addition, in the test with 60 tumor cell lines, the “Percentage cell growth, Arithmetic mean of all 60 cell lines” value amounted to 90.5%.

The record behind these values is patent US20150099774A1, “Pyrido [3,4-C] [1,9] phenanthroline and 11, 12 dihydropyrido [3,4-C] [1,9] phenanthroline derivatives and the use thereof, particularly for treating cancer” (CHRISTIAN-ALBRECHTS-UNIVERSITAET ZU KIEL, priority 2012, published 2015).
